Here are results for 112 molecules from a melting point compilation (Tetko et al.).

Each structure is given as a SMILES string.

What is called melting point is the temperature, or range, at which the solid turns liquid. `NNC(N)=O` gave a melting point of 96 °C.

Molecule `Cc1c(S(=O)(=O)c2ccc(Cl)cc2)csc1C(=O)Cl` registered a melting point of 131 to 132 °C. The result for `CCCC(O)C(CC)CO` (configuration not stated) reads -40 °C. The result for `OC(c1ccccc1)P(c1ccccc1)c1ccccc1` (configuration not stated) reads 157 °C; that for `Nc1nc(O)nc2[nH]cnc12`, 300 °C. In turn, `Cc1ccc(S(=O)(=O)O)c(C)c1` had a melting point of 57 °C. The result for `O=[N+]([O-])c1ccccc1/C=C/c1ccccn1` reads 214 °C; that for `Clc1cc2oc3c(Cl)c(Cl)c(Cl)cc3c2cc1Cl`, 196 °C. The figure for `OC(Cc1ccccc1)c1ccccc1` (configuration not stated) is 67 °C.

In turn, `CC1CCC(C)(C(=O)CCOC(=S)Nc2ccccc2)C1(C)C` (configuration not stated) displayed a melting point of 154 °C. The figure for `COc1cnc(NS(=O)(=O)c2ccc(N)cc2)nc1` is 215 °C; for `CSCS(=O)(=O)c1ccc(C)cc1` it is 79 °C.

Consider `Nc1cc(Cl)c(Cl)cc1N`, for which the melting point lay within 162 to 163 °C. The result for `CN(C)c1nnc(Br)c(-c2nc(N(C)C)nnc2Br)n1` reads 123 °C; that for `C=C1C(=O)C23C4CC5C(C)(C)CCC(OC(C)=O)C5(C(OC(C)=O)O4)C2C(OC(C)=O)CC1C3OC(C)=O` (configuration not stated), 230 °C; that for `COc1c(Br)cc(C)c2c1CCC2`, 30 °C. `CN(C)c1ccc(N=C=S)cc1` had a melting point of 69 to 71 °C. The figure for `CN=C=O` is -45 °C.

`NC(=O)CCOC1CCN(Cc2ccccc2)CC1` came in with a melting point of 73 to 75 °C. The molecule `CN(C)c1ccc(C=Cc2nc3ccccc3s2)cc1` registered a melting point of 210 °C. The result for `O=C1C=CC(=O)C(Cl)=C1` reads 52 to 57 °C. The result for `O=C(Nc1cccnc1)C(F)(F)C(F)(F)C(F)(F)C(F)(F)C(F)(F)C(F)(F)C(F)(F)C(F)(F)F` reads 145 °C; that for `CC(=O)NC(C)=O`, 79 °C. The result for `FC(F)(F)c1ccc2cc[nH]c2c1` reads 103 °C; that for `O=Cc1ccc(-c2ccc(Br)cc2)o1`, 150 to 155 °C.

`CSC(S)=Nc1ccc(Br)cc1` registered a melting point of 133 to 134 °C. Consider `COC(=O)c1sccc1Oc1ccc(Cl)cc1[N+](=O)[O-]`, for which the melting point fell in the range of 125 to 128 °C. Take `CCC1C(=O)CCC1=O`: the melting point is 172 to 175 °C. The result for `Nc1ccc(-c2cnco2)cc1` reads 150 to 151 °C; that for `CSc1nnc(N)s1`, 176 to 180 °C; that for `Clc1ccc(Cc2c(N=Cc3ccccc3Cl)n[nH]c2N=Cc2ccccc2Cl)cc1`, 199 to 201 °C. The result for `CC(C(=O)O)c1cccc(C(=O)c2ccccc2)c1` (configuration not stated) reads 94 °C; that for `CCOC(=O)c1nn(-c2ccc(C)cc2)c(C)c1C(=O)c1noc(-c2cccc3ccccc23)c1S(=O)(=O)c1ccccc1`, 173 °C; that for `CCCCCCCCCCCCCC#N`, 19 °C.

In turn, `O=C(Nc1ccc(Cl)cc1C(O)c1ccccc1)c1ccncc1` (configuration not stated) yielded a melting point of 211 °C.

The molecule `Nc1ccc(C=CC(=O)O)cc1` came in with a melting point of 122 °C. The figure for `O=S(=O)(c1ccccc1)c1ccsc1` is 116 °C; for `N#Cc1ccoc1` it is 29 to 31 °C; for `CC(C)N1CSc2nnc(-c3cccc([N+](=O)[O-])c3)n2C1` it is 165 °C.

In turn, `O=C1c2ccccc2C(=O)N1Cc1ccccc1` returned a melting point of 116 °C. In the case of `CC1(C)OC(=O)C(=Cc2ccc(-c3ccc(Br)cc3)o2)C(=O)O1`, the melting point came to 182 °C.

Turning to `CCCC1C(=O)N2C(N(C)C)=Nc3ccc(C)cc3N2C1=O` (configuration not stated), the melting point is 228 °C. The figure for `COC(=O)C1=C(C(=O)OC)C(=O)C(=C2C=Cc3ccccc3N2)C1=O` is 362 to 363 °C.

`O=C1CCCN1CCO` displayed a melting point of 20 °C. The molecule `CC(=O)CC(=O)c1ccc2ccccc2c1` came in with a melting point of 78 °C. `CCCCCCCCCCC1CCCC1` yielded a melting point of -22 °C. `O=C(O)c1cc(C(F)(F)F)ccc1C(F)(F)F` gave a melting point of 79 °C. On to `COc1cc2nc[nH]c(=O)c2cc1OC`, for which the melting point turned out to be 250 °C.

In the case of `CCOC(=O)c1coc(Cl)n1`, the melting point was 97.5 °C. `COc1ccc(-c2noc(C)c2C(=O)O)cc1` showed a melting point of 190 to 195 °C.

In turn, `CC1(C)OC(=O)C2(Cc3ccccc3C2)C(=O)O1` returned a melting point of 158 °C. Molecule `CN1CCN(Cc2cccc(I)c2)CC1` displayed a melting point of 81 to 83 °C. The figure for `Fc1ccc(OCC2CO2)cc1` (configuration not stated) is 19.5 °C; for `O=Cc1ccsc1Sc1ccc(Cl)cc1` it is 57 to 60 °C.

Molecule `CCCCNC` yielded a melting point of -75 °C. Turning to `CCCCCCCCC(=O)CCCCCC`, the melting point stood at 31 °C. The figure for `Clc1c(Cl)c(Cl)c2c(c1Cl)Oc1ccccc1O2` is 188 °C; for `Clc1nccc2ccc(Br)cc12` it is 124 °C. Molecule `FC(F)(F)c1ccc(Br)cn1` returned a melting point of 40 °C. The figure for `CCc1ccc(NC(N)=S)cc1` is 138 °C; for `COC(=O)C(OC)C(=O)OC` it is 11 to 12 °C. The figure for `O=c1nc2ccccc2nc(C(F)(F)F)c1NNc1ccc2ccccc2c1` is 151 °C. The figure for `C/C(=N\NC(N)=O)c1ccc(C)cc1` is 204 °C. Turning to `COc1cc(N)ccc1[N+](=O)[O-]`, the melting point amounted to 127 °C. On to `COc1ncccc1N`, for which the melting point was 67 to 68 °C. The figure for `O=C(NCOC(=O)c1ccc(OCNC(=O)c2ccccc2)cc1)c1ccccc1` is 176 to 178 °C; for `O=C(c1ccccc1)c1ccc(Cl)c(Cl)c1` it is 102 °C. The molecule `Cc1c(C(=O)O)[nH]c2ccccc12` had a melting point of 162 to 163 °C. The molecule `O=S(=O)(Cl)c1ccc(-c2ccc(Cl)c(Cl)c2)cc1` had a melting point of 105 to 106 °C. The molecule `COC(=O)C1(S(=O)(=O)c2ccc(C)cc2)CCCCC1` came in with a melting point of 146 °C. The figure for `OC(Cn1cncn1)(c1ccc(F)cc1)c1ccccc1F` (configuration not stated) is 130 °C; for `CN(C)CCC=C1c2ccccc2COc2ccc(CC(=O)O)cc21` it is 248 °C. `COC(=O)c1cnc(SCC(=O)c2ccc(Cl)cc2)n1C`: the melting point fell in the range of 126 to 127 °C. The figure for `Cc1ccc([C@@H]2CC(=O)[C@@H](c3ccccc3)[C@H](c3ccc(C)cc3)N2)cc1` is 148 °C. Molecule `N#Cc1cc2[nH]c(=O)c(=O)[nH]c2cc1[N+](=O)[O-]` displayed a melting point of 300 °C. The figure for `CCCCCCCCCCCCCC(=O)OCc1ccccc1` is 20.5 °C. The result for `CCSc1ncccc1C(=O)NC(CCSC)C(=O)O` (configuration not stated) reads 121 to 122 °C; that for `Cc1ccc(I)c([N+](=O)[O-])c1`, 52 to 54 °C. For the molecule `Cn1c(=O)c2c(ncn2CC2OCCO2)n(C)c1=O`, the melting point stood at 144 °C. Turning to `Cc1ccc(C(O)(c2ccc(C)cc2)C2(C)CCC(C(=O)O)C(C)(C)O2)cc1` (configuration not stated), the melting point was 152 °C.

`CCOc1ccccc1OCCBr`: the melting point amounted to 42 °C. The result for `O=C(O)c1ccc2sccc2c1` reads 213 to 214 °C. The result for `CCC1(CCC(C)C)C(=O)NC(=O)NC1=O` reads 156 °C; that for `O=C1OC(=O)c2c(Cl)cccc21`, 123 to 126 °C. The figure for `OC1Cc2ccccc2C1` is 70 °C; for `N#CC(C=O)c1ccc(Cl)cc1` (configuration not stated) it is 157 °C. The molecule `CN(CC=CC#CC(C)(C)C)Cc1cccc2ccccc12` yielded a melting point of 196 °C. Take `CCCCC1CCCC1`: the melting point is -108 °C. The result for `O=C1CCCCCCCN1` reads 78 °C; that for `CC(C=CC=C(C)C=CC1=C(C)CCCC1(C)C)=CC=CC=C(C)C=CC=C(C)C=CC1=C(C)CC(O)CC1(C)C` (configuration not stated), 160 °C. The result for `CN(CC(=O)O)N=O` reads 66.5 °C. The result for `O=C1NN=C(C(F)(F)F)C1=NNc1cc(-c2ccccc2)n[nH]1` reads 271 °C; that for `Cc1ccc(C(=O)O)cc1O`, 210 °C. `C=C1C(=O)C23C(OC)CC4C5(C)CCCC4(COC5=O)C2C(OC(C)=O)CC1C3O` (configuration not stated) registered a melting point of 126 to 127 °C. The result for `CCOC(=O)c1cc2ccccc2cc1O` reads 80 to 81 °C. The figure for `O=Cc1cccn1-c1ccc([N+](=O)[O-])cc1` is 166 to 169 °C; for `Cc1ccc(F)c(O)c1` it is 32 °C. `Cc1c(C(=O)Cl)cnn1-c1ccccc1`: the melting point lay in the range of 147 to 148 °C. The result for `Cc1cccc2c1C(=O)OC2` reads 86 °C. The figure for `CCOC(=O)CCCCCC(=O)O` is 10 °C; for `O=C(c1noc(-c2ccc(Cl)cc2)c1S(=O)(=O)c1ccccc1)c1cccc2ccccc12` it is 169 °C.

Turning to `N#CO`, the melting point is -86 °C.

The molecule `CCCc1nn(-c2ccccc2)c(=O)n1C(N)=O` yielded a melting point of 133 °C. The figure for `OCC1OC(c2ccccc2)OC1CO` (single isomer, unassigned; (+)) is 69 to 74 °C; for `Cn1[nH]c(N)c2c(=O)c(C(=O)O)cnc1-2` it is 224 °C; for `CCOC(=O)CCCCCC(=O)OCC` it is -24 °C. The result for `CCCCC(C=O)NC(=O)C(CC(C)C)NC(=O)OCc1ccccc1` (configuration not stated) reads 60 to 75 °C; that for `Nc1ccc(C/C(=N/O)c2ccc(N)cc2)cc1`, 146 to 147 °C; that for `Cc1cc(=O)[nH]c2c(/N=N/c3ccc(O)cc3)c(N)nn12`, 285 °C. In turn, `Cc1cc(-c2cc(C)c(N)c(C)c2)cc(C)c1N` registered a melting point of 170 °C. As for `Cc1ccc2c(c1)C(=O)c1ccc(C)cc1C2=O`, the melting point came out at 240 °C. The result for `CC(C)(C)OC(=O)C(Cl)(Cl)Cl` reads 25.5 °C.
